Reference: US12611394B2, “Use of ginkgolide a in the treatment of autism” (CENTER FOR EXCELLENCE IN MOLECULAR CELL SCIENCE, CHINESE …, priority 2019, dated 2026)

Experiments:
Type in all cases: in vivo, mouse
[1] = tested on: heterozygous mutant mice carrying NR2F1 gene point mutation; assay: Self-grooming experiment after administration of ginkgolide A; conditions: mutant (+/m) mice, gavage 2 mg/kg once a day, 7-8 weeks after birth, tested at 8 weeks; FIG. 12
Experimental: The experimental mice were placed in a feeding cage with the bottom covered with feed and the height was no more than 1 cm. The time of grooming behavior in mice in 10 minutes was recorded. The grooming position includes face, head, neck, ears, etc. Subsequent self-grooming experiments were conducted to detect repetitive stereotyped behaviors. […] Ginkgolide A was administered to heterozygous mutant mice. The detailed administration scheme was as follows: the administration method was gavage treatment, the concentration of ginkgolide A was 2 mg/kg, the administration time is 7-8 weeks after the birth of mutant mice, and the administration frequency was once a day.

[2] = tested on: heterozygous mutant mice carrying NR2F1 gene point mutation; assay: Three-box experiment (sociability and social novelty test) after administration of ginkgolide A; conditions: mutant (+/m) mice, gavage 2 mg/kg once a day, 7-8 weeks after birth, tested at 8 weeks; FIG. 11
Experimental: a. Experimenter A entered the behavior room one hour before the experiment, took out a cage (four) of the experimental mice placed in the next room and placed them in the behavior room 1 hour. Meanwhile, the two mice needed in the experiment (note that the mice used here and the experimental mice cannot be in the same nest, and the sex should be the same) were placed in the behavior room 1 hour. Turn on the light to adapt it to the environment; b. Experimenter A started to clean the three boxes of equipment used in the experiment about half an hour before the experiment, sprayed the 30% alcohol on all parts of the three boxes, wiped gently with a white cloth, and then wiped dry with a new clean white cloth. Then two cages and two objects were washed. And the cloth used to block personnel and the experimental area was put up. c. At the same time, experimenter B began to debug the computer operating software: open the three-box experimental program and confirm whether the positions of the three boxes coincide with the position divided by the software. If not, please assist experimenter A in adjusting. […] After everything was ready, in the first round of the experiment, experimenter A put identical objects in areas 2 and 3, such as bottle caps. […] 5 min later, the experiment was ready to start. […] The experiment lasted 10 min, and the software recorded the time and distance of mice in each area. […]

[3] = tested on: heterozygous mutant mice carrying NR2F1 gene point mutation; assay: Elevated-plus maze experiment after administration of ginkgolide A; conditions: mutant (+/m) mice, gavage 2 mg/kg once a day, 7-8 weeks after birth, tested at 8 weeks; FIG. 13
Experimental: The related anxiety state of mice were investigated by using the characteristics that mice like to explore in the new environment and the contradictory behavior of fear of heights with open arms at heights. In order to increase the total number of mice entering the arm and avoid hiding in the closed arm, the animals were usually placed in an open environment for 5 minutes and then placed in the maze. Similarly, the mice were placed in a room with an elevated experimental device to adapt to the environment one hour before the start of the experiment, with the red light turned on, and the room temperature was kept at 25° C. At the beginning of the experiment, hold the mouse into the palm of the hand, place it in the middle of the cross facing the closed arm, and quickly leave this room. Then another person started recording and tracking the activity movement of the mouse in another room. In the process, the times of the experimental mouse entering the open arm and the closed arm was counted, and the time of staying in the open arm and the closed arm was counted respectively; after the whole process was recorded for 5 minutes for the experiment, the mice were gently stroked, and put back into the cage. The elevated-plus table was cleaned with 70% alcohol for the experiment of the next mouse. The elevated-plus experiment is mainly used to detect the anxiety behavior of mice. […]

## C[C@@H]1C(=O)O[C@H]2C[C@@]34[C@H]5C[C@@H](C(C)(C)C)[C@]36[C@@H](OC(=O)[C@@H]6O)O[C@@]4(C(=O)O5)[C@]21O [ginkgolide A]
[1]
  self-grooming time: significantly reduced
[2]
  time of interaction with similar mice (sociability): significantly increased
  time of interaction with unfamiliar mice (social novelty): significantly increased
[3]
  time to explore the open arm: increased significantly
